Experiments:
Assay type in all cases: cell-based
P2X7 receptor [1] = target: T1, P2X7 receptor (Homo sapiens, UniProt Q99572); experiment: Screen Quest Fluo-8 No Wash Calcium Assay (Bz-ATP evoked Ca2+ influx, FLIPR); set-up: hP2X7 (IC50; nM); other: hP2X7; HEK-293 cells stably transfected with P2X7 receptor, Bz-ATP at EC80, Fluo-8 NW; potency; conditions: hP2X7; HEK-293 cells stably transfected with P2X7 receptor, Bz-ATP at EC80, Fluo-8 NW; potency ranges A-D
T1 sequence (Q99572 1-595): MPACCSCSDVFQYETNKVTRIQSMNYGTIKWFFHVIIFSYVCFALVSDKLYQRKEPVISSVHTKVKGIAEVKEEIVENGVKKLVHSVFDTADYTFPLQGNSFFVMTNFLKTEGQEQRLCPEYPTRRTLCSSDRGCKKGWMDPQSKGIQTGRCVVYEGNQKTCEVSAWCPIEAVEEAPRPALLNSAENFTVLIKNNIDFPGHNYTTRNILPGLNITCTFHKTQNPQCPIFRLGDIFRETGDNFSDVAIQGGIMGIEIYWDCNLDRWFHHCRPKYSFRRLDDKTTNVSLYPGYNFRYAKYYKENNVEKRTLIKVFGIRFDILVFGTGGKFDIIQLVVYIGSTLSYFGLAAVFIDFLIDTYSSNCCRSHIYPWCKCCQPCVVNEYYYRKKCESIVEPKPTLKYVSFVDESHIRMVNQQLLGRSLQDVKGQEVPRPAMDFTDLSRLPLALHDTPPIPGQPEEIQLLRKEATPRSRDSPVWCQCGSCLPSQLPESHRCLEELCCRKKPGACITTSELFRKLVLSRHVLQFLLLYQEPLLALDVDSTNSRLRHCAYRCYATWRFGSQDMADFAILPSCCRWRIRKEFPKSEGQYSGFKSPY
Summary of the method: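 Compounds were added to Fluo-8-loaded P2X7-transfected HEK-293 cells 5 min before an EC80 Bz-ATP challenge, and Ca2+ influx was then recorded for 3 min. Buffer held 0.3 mM Ca2+ and no Mg2+. Inhibition was normalised to A438079, giving IC50 values.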

P2X7 receptor [2] = target: T1, P2X7 receptor; experiment: YO-PRO-1 uptake assay; set-up: expressed in transfected cells; conditions: HEK-293 cells stably transfected with P2X7 receptor; Bz-ATP EC80 (30 μM); Low Divalent Cation Assay Buffer
Description: YO-PRO®-1 is a fluorescent DNA-binding dye with a MW of 374 Da (Molecular Probes®, cat. Y3603). This method is based upon the presumed ability of YO-PRO®-1 to enter through the dilated or “large pore form” of P2X7 receptor and to bind to intracellular DNA whereupon it increases many fold its fluorescence intensity. The dye ha an absorption spectrum compatible with excitation at 488 nm by argon laser sources and its emission wavelength is in the range of 515-575 nm. The aim of this assay was to validate the interaction of antagonists with P2X7 receptor using an alternative readout to Ca2+-sensitive fluorescent dyes.
HEK-293 cells stably transfected with P2X7 receptor were seeded overnight un growth medium at 20,000 cell/well in 384-well plate. 24 hours later, the medium was removed, the cells were washed with Low Divalent Cation Assay Buffer (0.3 mM Ca^2+ and 0 mM Mg^2+) and then pre-loaded with 20 μL/w of 5 μM YO-PRO®-1 dye.
FLIPRTETRA fluorescence measurement immediately started. Then 10 μL/w of test compounds and reference antagonist A438079 at 3×-concentration were injected with the FLIPRTETRA and the kinetic response over a period of five minutes was monitored. A second injection of 10 μL/w of 3× Bz-ATP EC80 (30 μM) was performed with the FLIPRTETRA and the signal of the emitted fluorescence was recorded for additional 60 minutes. All the experiment was carried out with a Low Divalent Cation Assay Buffer (0.3 mM Ca^2+ and 0 mM Mg^2+).
The effect of the test compounds was measured as percent inhibition vs the reference antagonist and IC50 values were calculated accordingly.

P2X7 receptor [3] = target: T1, P2X7 receptor; experiment: Automated patch-clamp (QPatch16X) P2X7 channel assay; set-up: expressed in transfected cells; host or cells: HEK-293; conditions: HEK-293 cells expressing P2X7 channels; whole-cell, held at -80 mV; 100 microM BzATP; compound 1, 10, 100 and 1000 nM; read-out: Q-Patch (IC50)
Protocol: In order to directly monitor the block of P2X7 channel, an electrophysiological assay was developed and implemented on the QPatch16X automated electrophysiology instrument.
HEK-293 cells expressing the P2X7 channels were cultured in modified EMEM.
72 hours before experiment, 5 million cells were seeded onto T225 flasks. Just before the experiment cells were washed twice, detached from the flask with trypsin-EDTA, re-suspended in the suspension solution and placed on the QPatch 16x.
The compounds (20 mM in a 100% DMSO) stored at −20° C. were prepared the day of the experiment (a first dilution 1:20 in 100% DMSO to prepare a 1 mM stock solution, then a 1 microM solution in external solution+a serial dilution 1:10).
The standard whole-cell voltage clamp experiments were performed at room temperature. From these experiments the multihole technology was used and the data were sampled at 2 KHz.
The intracellular solution contained (mM) 135 CsF, 10 NaCl, 1 EGTA, 10 HEPES, (pH 7.2 with CsOH) whereas the extracellular contained (mM) 145 NaCl, 4 KCl, 0.5 MgCl2, 1 CaCl2, 10 HEPES, 10 Glc (pH 7.4 with NaOH).
After establishment of the seal and the passage in the whole cell configuration, the cells were held at −80 mV. The P2XR7 current was evoked by applying 100 microM of BzATP alone (4 times) and then in the presence increasing concentrations of the compound under investigation (1, 10, 100 and 1000 nM).
The pre-incubation periods 5 to 8 contain increasing concentrations of the compound of interest (1, 10, 100 and 1000 nM), as illustrated in FIGURE (application protocol).
The maximal inward current evoked by BzATP in absence or presence of increasing concentrations of the compounds under investigation was measured and normalized. The potential […] effect was measured as % of control and as IC50 determined fitting the dose-response curves data with the following equation: Y=100/(1+10^((Log IC50−X)*HillSlope))

Row | Compound | IC50 (P2X7 receptor [1]) [nM] | IC50 (P2X7 receptor [2]) [nM] | IC50 (P2X7 receptor [3]) [µM]
1 | CC1(C)CCC(Cn2c(Cc3c(F)cccc3Cl)noc2=O)CC1 [Example 86, 3-[(2-chloro-6-fluorophenyl)methyl]-4-[(4,4-dimethylcyclohexyl)methyl]-4,5-dihydro-1,2,4-oxadiazol-5-one] | 200 to 1000 | 111 | 0.154
2 | O=c1onc(Cc2c(F)cccc2Cl)n1Cc1cccc(F)c1 [Example 26, 3-[(2-chloro-6-fluorophenyl)methyl]-4-[(3-fluorophenyl)methyl]-4,5-dihydro-1,2,4-oxadiazol-5-one] | 200 to 1000 | 329 | 0.182
3 | O=c1onc(Cc2c(F)cccc2Cl)n1CC1CCC(F)(F)CC1 [Example 84, 3-[(2-chloro-6-fluorophenyl)methyl]-4-[(4,4-difluorocyclohexyl)methyl]-4,5-dihydro-1,2,4-oxadiazol-5-one] | < 200 | 3.4 | 0.00843
4 | O=c1onc(Cc2ccc(F)cc2)n1Cc1c(F)cccc1Cl [Example 1, 4-[(2-chloro-6-fluorophenyl)methyl]-3-[(4-fluorophenyl)methyl]-4,5-dihydro-1,2,4-oxadiazol-5-one] | 200 to 1000 | 581 | 0.247
5 | O=c1onc(Cc2cccc(Cl)c2Cl)n1Cc1ccc(F)cc1 [Example 71, 3-[(2,3-dichlorophenyl)methyl]-4-[(4-fluorophenyl)methyl]-4,5-dihydro-1,2,4-oxadiazol-5-one] | 200 to 1000 | 461 | 1.16
6 | O=c1onc(Cc2c(F)cccc2Cl)n1Cc1ccc(C(F)(F)F)o1 [Example 66, 3-[(2-chloro-6-fluorophenyl)methyl]-4-{[5-(trifluoromethyl)furan-2-yl]methyl}-4,5-dihydro-1,2,4-oxadiazol-5-one] | 200 to 1000 | 456 | 1.5
7 | O=c1onc(Cc2ccc(F)cc2Cl)n1Cc1ccc(F)cc1 [Example 73, 3-[(2-chloro-4-fluorophenyl)methyl]-4-[(4-fluorophenyl)methyl]-4,5-dihydro-1,2,4-oxadiazol-5-one] | 200 to 1000 | 670 | 0.423
8 | O=c1onc(Cc2c(F)cccc2Cl)n1Cc1ccc(F)cc1Cl [Example 60, 4-[(2-chloro-4-fluorophenyl)methyl]-3-[(2-chloro-6-fluorophenyl)methyl]-4,5-dihydro-1,2,4-oxadiazol-5-one] | 200 to 1000 | 366 | 0.623
9 | O=c1onc(Cc2c(F)cccc2Cl)n1Cc1ccc(F)cc1F [Example 61, 3-[(2-chloro-6-fluorophenyl)methyl]-4-[(2,4-difluorophenyl)methyl]-4,5-dihydro-1,2,4-oxadiazol-5-one] | 200 to 1000 | 293 | 0.149

Other lines, results leading:

Row | IC50 (P2X7 receptor [1]) [nM] | IC50 (P2X7 receptor [2]) [nM] | IC50 (P2X7 receptor [3]) [µM] | Compound
10 | < 200 | 66 | 0.0686 | O=c1onc(Cc2c(F)cccc2Cl)n1CC1CCC(F)(F)C1 (single isomer, unassigned) [Example 149, 3-(2-chloro-6-fluorobenzyl)-4-[(3,3-difluorocyclopentyl)methyl]-1,2,4-oxadiazol-5(4H)-one]
11 | < 200 | 115 | 0.0452 | O=c1onc(Cc2c(F)cccc2Cl)n1CC1CCC(F)(F)C1 (racemic) [Example 128, 3-[(2-chloro-6-fluorophenyl)methyl]-4-[(3,3-difluorocyclopentyl)methyl]-4,5-dihydro-1,2,4-oxadiazol-5-one]
12 | 200 to 1000 | 181 | 0.0392 | O=c1snc(Cc2c(F)cccc2Cl)n1CC1CCCCC1 [Example 140, 3-[(2-chloro-6-fluorophenyl)methyl]-4-(cyclohexylmethyl)-4,5-dihydro-1,2,4-thiadiazol-5-one]
13 | < 200 | 63 | 0.0345 | O=c1onc(Cc2c(F)cccc2Cl)n1CC1CC2CCC1C2 (stereo not drawn) [Example 88, 4-{bicyclo[2.2.1]heptan-2-ylmethyl}-3-[(2-chloro-6-fluorophenyl)methyl]-4,5-dihydro-1,2,4-oxadiazol-5-one]
14 | < 200 | 193 | 0.1 | O=c1onc(Cc2c(F)cccc2Cl)n1CC1CCCCC1(F)F (stereo not drawn) [Example 97, 3-[(2-chloro-6-fluorophenyl)methyl]-4-[(2,2-difluorocyclohexyl)methyl]-4,5-dihydro-1,2,4-oxadiazol-5-one]
15 | 200 to 1000 | 435 | 0.332 | O=c1onc(Cc2c(F)cccc2Cl)n1CC1CCCCO1 (stereo not drawn) [Example 94, 3-[(2-chloro-6-fluorophenyl)methyl]-4-(oxan-2-ylmethyl)-4,5-dihydro-1,2,4-oxadiazol-5-one]
16 | < 200 | 171 | 0.119 | Cc1noc(C)c1Cc1noc(=O)n1CC1CCC(F)(F)CC1 [Example 211, 4-[(4,4-difluorocyclohexyl)methyl]-3-[(dimethyl-1,2-oxazol-4-yl)methyl]-4,5-dihydro-1,2,4-oxadiazol-5-one]
17 | < 200 | 32 | 0.00336 | O=c1onc(CC2CCC(F)(F)CC2)n1Cc1c(F)cccc1Cl [Example 132, 4-[(2-chloro-6-fluorophenyl)methyl]-3-[(4,4-difluorocyclohexyl)methyl]-4,5-dihydro-1,2,4-oxadiazol-5-one]
18 | 200 to 1000 | 184 | 0.149 | Cc1noc(C)c1Cc1noc(=O)n1CC1CCCCC1 [Example 210, 4-(cyclohexylmethyl)-3-[(dimethyl-1,2-oxazol-4-yl)methyl]-4,5-dihydro-1,2,4-oxadiazol-5-one]
19 | 200 to 1000 | 399 | 0.0727 | O=c1onc(Cc2cccc(Cl)c2Cl)n1CC1CCCCC1 [Example 115, 4-(cyclohexylmethyl)-3-[(2,3-dichlorophenyl)methyl]-4,5-dihydro-1,2,4-oxadiazol-5-one]

— patent US11623919B2, “Heterocyclic P2X7 antagonists” (AXXAM S.P.A., priority 2017, dated 2023)
